We go through 25 compounds from patent US8143393B2, “Substituted 4-amino-pyrrolotriazine derivatives useful for treating hyper-proliferative disorders and diseases associated with angiogenesis” (Bayer HealthCare LLC, priority 2005, dated 2012).

pIC50: −log10 of the molar value. Where only a bound is given, the exact number is not on record here.

A word on the IC50: it is the point on the concentration scale where inhibition reaches its midpoint. What is called pIC50 is the IC50 on a negative log10 scale, so that one unit is a factor of ten. Read a high pIC50 as a low IC50.

The target of one assay is T1, FGFR-1 (Homo sapiens, UniProt P11362).
T1 construct: GST; made in house
T1 sequence (P11362 22-822): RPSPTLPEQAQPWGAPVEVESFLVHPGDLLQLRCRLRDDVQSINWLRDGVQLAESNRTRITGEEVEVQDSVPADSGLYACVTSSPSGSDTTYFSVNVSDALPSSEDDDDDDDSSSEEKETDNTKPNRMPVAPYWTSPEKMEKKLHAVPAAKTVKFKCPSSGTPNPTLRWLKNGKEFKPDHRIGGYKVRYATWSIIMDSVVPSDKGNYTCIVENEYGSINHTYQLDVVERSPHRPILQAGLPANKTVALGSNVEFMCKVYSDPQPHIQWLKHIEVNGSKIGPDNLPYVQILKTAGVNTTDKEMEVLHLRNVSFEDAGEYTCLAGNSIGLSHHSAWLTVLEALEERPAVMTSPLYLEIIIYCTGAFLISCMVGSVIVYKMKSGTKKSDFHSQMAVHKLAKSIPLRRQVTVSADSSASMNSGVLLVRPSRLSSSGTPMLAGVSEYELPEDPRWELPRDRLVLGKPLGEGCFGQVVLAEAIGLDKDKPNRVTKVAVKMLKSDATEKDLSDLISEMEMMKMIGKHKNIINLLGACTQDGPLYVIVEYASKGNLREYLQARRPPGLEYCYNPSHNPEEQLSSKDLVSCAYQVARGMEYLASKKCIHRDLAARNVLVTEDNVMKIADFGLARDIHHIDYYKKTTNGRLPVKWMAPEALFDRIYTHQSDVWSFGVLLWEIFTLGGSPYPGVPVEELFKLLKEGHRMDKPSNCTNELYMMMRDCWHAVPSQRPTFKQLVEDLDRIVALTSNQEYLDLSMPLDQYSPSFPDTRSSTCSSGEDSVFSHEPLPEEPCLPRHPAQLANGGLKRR
In words: FGFR-1 TR-FRET biochemical assay. To be noted: 0.6 uM ATP, 5 nM FGFR1-GST; bounds given in nM. The method, then:
FGFR-1TR-FRET Biochemical Assay
The FGFR-1 Assay was performed on half well 96-well opaque plates (Costar 3915) in a LANCE format. LANCE is a homogenous time resolved fluormetry based application available through Perkin Elmer. For this assay, 50 uL reactions were set up using: 0.6 uM ATP (Sigma), 25 nM poly GT-biotin (CIS BIO International), 2 nM Eu-labelled phospho-Tyr Ab (PY20 PerkinElmer), 10 nM Streptavidin-APC (Perkin Elmer), 5 nM FGFR1-GST (generated by DRT, Bayer Healthcare), 1% DMSO, 50 mM HEPES pH 7.5, 10 mM MgCl2, 0.1 mM EDTA, 0.015% Brij, 0.1 mg/ml BSA, 0.1% B-mercaptoethanol. All reactions were initiated with the addition of enzyme and were left to incubate for one hour at room temperature. Time-resolved fluorescence was then read on a Perkin Elmer VictorV Multilabel counter. The reading protocol uses an excitation wavelength at 340 nm and emission reads at both 615 and 665 nm. Signal was calculated as a ratio: (Flourescence at 665 nm/Flourescence at 615 nM)*10000 for each well. The background control used for this assay is the signal produced with all assay components excluding ATP. For IC50 generation, compounds were added prior to the enzyme initiation. A 50-fold stock plate was made with compounds serially diluted 1:5 in a 50% DMSO/50% dH2O solution. A 1 μL addition of the stock to the assay wells gave final compound concentrations ranging from 10 μM-0.128 nM in 1% DMSO. The data were expressed as percent inhibition: % inhibition=100−((Signal with inhibitor−background)/(Signal without inhibitor−background))*100.
For the compound `CC(C)(C)c1cc(NC(=O)Nc2ccc(-c3cc(CN4CCOCC4)n4ncnc(N)c34)cc2)on1` [Example 2, N-{4-[4-amino-7-(morpholin-4-ylmethyl)pyrrolo[2,1-f][1,2,4]triazin-5-yl]phenyl}-N′-(3-tert-butylisoxazol-5-yl)urea], the IC50 is under 10 nM.
For `Nc1ncnn2c(CN3CCOCC3)cc(-c3cc(F)c(NC(=O)Nc4cc(C(F)(F)F)ccc4F)c(F)c3)c12` [Example 7, N-{4-[4-amino-7-(morpholin-4-ylmethyl)-pyrrolo[2,1-f][1,2,4]triazin-5-yl]-2,6-difluorophenyl}-N′-[Z-fluoro-5-(trifluoro-methyl)phenyl]urea], the IC50 is over 100 nM.
On to `Nc1ncnn2c(CN3CCOCC3)cc(-c3ccc(NC(=O)Nc4cc(C(F)(F)F)ccc4F)nc3)c12` [Example 9, N-{5-[4-amino-7-(morpholin-4-ylmethyl)pyrrolo[2,1-f][1,2,4]triazin-5-yl]pyridin-2-yl}-N′-[2-fluoro-5-(trifluoromethyl)phenyl]urea], for which the IC50 is under 10 nM.
Compound `Nc1ncnn2c(CN3CCOCC3)cc(-c3ccc(NC(=O)Nc4cc(C(F)(F)F)ccn4)cc3F)c12` [Example 11, N-{4-[4-amino-7-(morpholin-4-ylmethyl)pyrrolo[2,1-f][1,2,4]triazin-5-yl]-3-fluorophenyl}-N′-[4-(trifluoromethyl)pyridin-2-yl]urea] gave an IC50 of under 10 nM.
On the same count and under the same terms, then `Nc1ncnn2c(CN3CCOCC3)cc(-c3ccc(NC(=O)Nc4cc(C(F)(F)F)ccn4)nc3)c12` [Example 12, N-{5-[4-amino-7-(morpholin-4-ylmethyl)pyrrolo[2,1-f][1,2,4]triazin-5-yl]pyridin-2-yl}-N′-[4-(trifluoromethyl)pyridin-2-yl]urea], with under 10 nM; and `Nc1ncnn2c(CN3CCOCC3)cc(-c3cc(F)c(NC(=O)Nc4cc(C(F)(F)F)ccn4)c(F)c3)c12` [Example 14, N-{4-[4-amino-7-(morpholin-4-ylmethyl)pyrrolo[2,1-f][1,2,4]triazin-5-yl]-2,6-difluorophenyl}-N′-[4-(trifluoromethyl)pyridin-2-yl]urea], with over 100 nM.
In turn, `Nc1ncnn2c(CN3CCOCC3)cc(-c3ccc(NC(=O)Nc4ccc(F)c(C(F)(F)F)c4)nc3)c12` [Example 18, N-{5-[4-amino-7-(morpholin-4-ylmethyl)pyrrolo[2,1-f][1,2,4]triazin-5-yl]pyridin-2-yl}-N′-[4-fluoro-3-(trifluoromethyl)phenyl]urea] showed an IC50 of under 10 nM.
The same measure, in the same setting: for `Nc1ncnn2c(CN3CCOCC3)cc(-c3ccc(NC(=O)Nc4ccc(Cl)c(C(F)(F)F)c4)nc3)c12` [Example 19, N-{5-[4-amino-7-(morpholin-4-ylmethyl)pyrrolo[2,1-f][1,2,4]triazin-5-yl]pyridin-2-yl}-N′-[4-chloro-3-(trifluoromethyl)phenyl]urea] the value was under 10 nM; for `Nc1ncnn2c(CN3CCOCC3)cc(-c3ccc(NC(=O)Nc4cccc(C(F)(F)F)c4)nc3)c12` [Example 20, N-{5-[4-amino-7-(morpholin-4-ylmethyl)pyrrolo[2,1-f][1,2,4]triazin-5-yl]pyridin-2-yl}-N′-[3-(trifluoromethyl)phenyl]urea], under 10 nM; for `Nc1ncnn2c(CN3CCOCC3)cc(-c3ccc(NC(=O)Nc4cccc(C(F)(F)F)c4F)nc3)c12` [Example 21, N-{5-[4-amino-7-(morpholin-4-ylmethyl)pyrrolo[2,1-f][1,2,4]triazin-5-yl]pyridin-2-yl}-N′-[2-fluoro-3-(trifluoromethyl)phenyl]urea], 10 to 100 nM.
`Nc1ncnn2c(CN3CCOCC3)cc(-c3ccc(NC(=O)Nc4cc(F)cc(C(F)(F)F)c4)nc3)c12` [Example 22, N-{5-[4-amino-7-(morpholin-4-ylmethyl)pyrrolo[2,1-f][1,2,4]triazin-5-yl]pyridin-2-yl}-N′-[3-fluoro-5-(trifluoromethyl)phenyl]urea] came in with an IC50 of under 10 nM.
The compound `Cc1cc(-c2cc(CN3CCOCC3)n3ncnc(N)c23)ccc1NC(=O)Nc1cc(C(F)(F)F)ccn1` [Example 26, N-{4-[4-amino-7-(morpholin-4-ylmethyl)pyrrolo[2,1-f][1,2,4]triazin-5-yl]-2-methylphenyl}-N′-[4-(trifluoromethyl)pyridin-2-yl]urea] came in with an IC50 of under 10 nM.
In turn, `Cc1cc(-c2cc(CN3CCOCC3)n3ncnc(N)c23)ccc1NC(=O)Nc1ccc(F)c(C(F)(F)F)c1` [Example 27, N-{4-[4-amino-7-(morpholin-4-ylmethyl)pyrrolo[2,1-f][1,2,4]triazin-5-yl]-2-methylphenyl}-N′-[4-fluoro-3-(trifluoromethyl)phenyl]urea] displayed an IC50 of under 10 nM.
Still for that read-out and setting: for `Cc1cc(-c2cc(CN3CCOCC3)n3ncnc(N)c23)ccc1NC(=O)Nc1cc(F)cc(C(F)(F)F)c1` [Example 28, N-{4-[4-amino-7-(morpholin-4-ylmethyl)pyrrolo[2,1-f][1,2,4]triazin-5-yl]-2-methylphenyl}-N′-[3-fluoro-5-(trifluoromethyl)phenyl]urea] the value was under 10 nM; for `Cc1cc(NC(=O)Nc2cc(C(F)(F)F)ccc2F)ccc1-c1cc(CN2CCOCC2)n2ncnc(N)c12` [Example 29, N-{4-[4-amino-7-(morpholin-4-ylmethyl)pyrrolo[2,1-f][1,2,4]triazin-5-yl]-3-methylphenyl}-N′-[2-fluoro-5-(trifluoromethyl)phenyl]urea], under 10 nM; for `COc1cc(-c2cc(CN3CCOCC3)n3ncnc(N)c23)ccc1NC(=O)Nc1cc(C(C)(C)C)no1` [Example 30, N-{4-[4-amino-7-(morpholin-4-ylmethyl)pyrrolo[2,1-f][1,2,4]triazin-5-yl]-2-methoxyphenyl}-N′-(3-tert-butylisoxazol-5-yl)urea], 10 to 100 nM.
The compound `COc1cc(-c2cc(CN3CCOCC3)n3ncnc(N)c23)ccc1NC(=O)Nc1cc(C(F)(F)F)ccn1` [Example 31, N-{4-[4-amino-7-(morpholin-4-ylmethyl)pyrrolo[2,1-f][1,2,4]triazin-5-yl]-2-methoxyphenyl}-N′-[4-(trifluoromethyl)pyridin-2-yl]urea] registered an IC50 of 10 to 100 nM.
The compound `COc1cc(-c2cc(CN3CCOCC3)n3ncnc(N)c23)ccc1NC(=O)Nc1ccc(F)c(C(F)(F)F)c1` [Example 32, N-{4-[4-amino-7-(morpholin-4-ylmethyl)pyrrolo[2,1-f][1,2,4]triazin-5-yl]-2-methoxyphenyl}-N′-[4-fluoro-3-(trifluoromethyl)phenyl]urea] gave an IC50 of 10 to 100 nM.
With `COc1cc(-c2cc(CN3CCOCC3)n3ncnc(N)c23)ccc1NC(=O)Nc1cccc(OC(F)(F)F)c1` [Example 33, N-{4-[4-amino-7-(morpholin-4-ylmethyl)pyrrolo[2,1-f][1,2,4]triazin-5-yl]-2-methoxyphenyl}-N′-[3-(trifluoromethoxy)phenyl]urea], the IC50 was in the range of 10 to 100 nM.
In the case of `COc1cc(-c2cc(CN3CCOCC3)n3ncnc(N)c23)ccc1NC(=O)Nc1cc(C(F)(F)F)ccc1Cl` [Example 35, N-{4-[4-amino-7-(morpholin-4-ylmethyl)pyrrolo[2,1-f][1,2,4]triazin-5-yl]-2-methoxyphenyl}-N′-[2-chloro-5-(trifluoromethyl)phenyl]urea], the IC50 was 10 to 100 nM.
`COc1cc(-c2cc(CN3CCOCC3)n3ncnc(N)c23)ccc1NC(=O)Nc1cc(C(F)(F)F)ccc1F` [Example 36, N-{4-[4-amino-7-(morpholin-4-ylmethyl)pyrrolo[2,1-f][1,2,4]triazin-5-yl]-2-methoxyphenyl}-N′-[2-fluoro-5-(trifluoromethyl)phenyl]urea] had an IC50 of 10 to 100 nM.
For the compound `COc1cc(NC(=O)Nc2cc(C(F)(F)F)ccc2F)ccc1-c1cc(CN2CCOCC2)n2ncnc(N)c12` [Example 37, N-{4-[4-amino-7-(morpholin-4-ylmethyl)pyrrolo[2,1-f][1,2,4]-triazin-5-yl]-3-methoxyphenyl}-N′-[2-fluoro-5-(trifluoromethyl)phenyl]urea], the IC50 was 10 to 100 nM.
`COc1cc(NC(=O)Nc2cc(C(F)(F)F)ccn2)ccc1-c1cc(CN2CCOCC2)n2ncnc(N)c12` [Example 38, N-{4-[4-amino-7-(morpholin-4-ylmethyl)pyrrolo[2,1-f][1,2,4]triazin-5-yl]-3-methoxyphenyl}-N′-[4-(trifluoromethyl)pyridin-2-yl]urea]: the IC50 fell in the range of 10 to 100 nM.
The same measure, in the same setting: for `Nc1ncnn2c(CN3CCNC(=O)C3)cc(-c3ccc(NC(=O)Nc4cc(C(F)(F)F)ccc4F)cc3)c12` [Example 39, N-(4-{4-amino-7-[(3-oxopiperazin-1-yl)methyl]pyrrolo[2,1-f][1,2,4]triazin-5-yl}phenyl)-N′-[2-fluoro-5-(trifluoromethyl)phenyl]urea] the value was under 10 nM.
Take `Nc1ncnn2c(CN3CCNC(=O)C3)cc(-c3ccc(NC(=O)Nc4cc(C(F)(F)F)ccc4F)c(F)c3)c12` [Example 40, N-(4-{4-amino-7-[(3-oxopiperazin-1-yl)methyl]pyrrolo[2,1-f][1,2,4]triazin-5-yl}-2-fluorophenyl)-N′-[2-fluoro-5-(trifluoromethyl)phenyl]urea]: the IC50 is under 10 nM.

Still in this assay, the particulars now being: upper bound of the bin 'greater than 100 nM but less than 1 μM' (lower bound in E1).
Take `Nc1ncnn2c(CN3CCOCC3)cc(-c3cc(F)c(NC(=O)Nc4cc(C(F)(F)F)ccc4F)c(F)c3)c12` [Example 7, N-{4-[4-amino-7-(morpholin-4-ylmethyl)-pyrrolo[2,1-f][1,2,4]triazin-5-yl]-2,6-difluorophenyl}-N′-[Z-fluoro-5-(trifluoro-methyl)phenyl]urea]: the pIC50 is over 6.00.
For `Nc1ncnn2c(CN3CCOCC3)cc(-c3cc(F)c(NC(=O)Nc4cc(C(F)(F)F)ccn4)c(F)c3)c12` [Example 14, N-{4-[4-amino-7-(morpholin-4-ylmethyl)pyrrolo[2,1-f][1,2,4]triazin-5-yl]-2,6-difluorophenyl}-N′-[4-(trifluoromethyl)pyridin-2-yl]urea], the pIC50 was over 6.00.
